Reference: US9512407B2, “Cells and methods for obtaining them” (GENOME RESEARCH LIMITED, priority 2009, dated 2016)
“Also recorded” adds a separate entry of the source.

How the values were obtained:
[1] = tested on: Rex1-Puro-IRES-Egfp knock-in mouse ES cell line; experiment: RA induced ES cell differentiation, Puro selection; format: cell-based; details: all-trans retinoic acid; antagonist added or cDNA over-expressed
Description: Insertion of this transposon into the mouse genome can either up-regulate genes near the insertion sites or disrupt them, depending on the structure of the insertion allele. To efficiently eliminate differentiated ES cells in the culture, we targeted the Puro-IRES-Egfp cassette to the Rex1 locus (FIG. 12b). Consequently, undifferentiated ES cells would be resistant to Puromycin (Puro) selection and GFP^+ in flow cytometry, while differentiated cells would be killed by Puro selection and become GFP^− due to rapid lose of Rex1 expression upon differentiation.
A library of mutant ES cells were differentiated with 1.0 μM all-trans retinoic acid (RA) for 4 days and subsequently selected with Puromycin (FIG. 12c). Several Pura^r ES cell clones were identified from independent mutant ES cell pools. Splinkrette PCR analysis identified PB integration sites in genes encoding Rarg, Pparg and Gclc. For Pparg, PB insertion caused over-expression of the entire protein coding sequences. In contrast, Rarg locus had four independent PB insertions, all found in intron 9 (the last intron) (FIG. 12d). These PB insertions caused truncation of Rarg which misses amino acids encoded by exon 10. […] This truncated Rarg likely functioned as a dominant negative form of wild type Rarg (Rarg-DN).
FIG. 12. […]

[2] = tested on: Oct4 locus; experiment: iPSC quality by Puro resistance and GFP expression from the Oct4 locus (flow cytometry); format: cell-based, mouse; details: for quality of iPS cells, measured by FACS: agonist with four Yamanaka factors, up to 8 days
Method: (§1) ES cell pluripotency requires proper levels of Oct4 (Pou5f1) expression (32), and activation of Oct4 is known to be a crucial event in reprogramming (3). To monitor activation of the endogenous Oct4 locus in reprogramming and to allow unbiased assessment of iPSC quality, we made an Oct4 reporter mouse line where the IRES-Puro-GFP cassette was targeted to the 3′UTR of the Oct4 locus (FIG. 6B). The targeted ES cells were resistant to 2.0 μg/ml Puromycin (Puro) selection. These ES cells were not visibly green under fluorescent microscope but could be distinguished by flow cytometry (FIG. 6C). […] MEFs from the Oct4 reporter mice were thus used in all the MEF reprogramming experiments, and consequently, reprogramming and iPSC quality could be conveniently monitored and assessed by either Puro resistance or GFP expression in iPSCs.
Expression of the endogenous Oct4 is unstable in iPSCs reprogrammed by the four Yamanaka factors (11). […] Further analysis confirmed their partially reprogrammed status: low levels of endogenous pluripotency gene expression (FIG. 1E), and retention of substantial DNA methylation in the differentially methylated regions (DMRs) in the Nanog and Rex1 promoters (FIG. 1F). On the other hand, a small number of colonies were obtained which were resistant to 2.0 μg/ml Puro, and were similar to ES cells regarding pluripotency gene expression, demethylation at the Nanog and Rex1 promoters, and GFP expression (FIG. 1E-F and FIG. 6E). […] In subsequent experiments, we used resistance to 2.0 μg/ml Puro or GFP expression as surrogate criteria for pluripotency quality of mouse primary iPSCs reprogrammed from Oct4-Puro-GFP MEFs.
Mouse iPSCs growing in 96 well feeder plates were trypsinized and resuspended in M15. iPSCs were spun down at 1,000 rpm for 3 minutes, and the medium was removed by putting the plate upside down on tissue. iPSCs were resuspended in PBS and analyzed by Cytomics FC-500 (Beckman Coulter).
We cloned the four Yamanaka factors into the PB transposons separately where expression of each cDNA was controlled by the LTR of MSCV (PB-MSCV-cDNAs, FIG. 6c). These four transposons and the PB transposase (PBase) plasmid were subsequently transfected into Oct4-IRES-Puro-Egfp MEFs. iPS cell colonies resembling those of regular ES cells appeared in three weeks. Most iPS colonies survived 1.0 or 1.5 μg/ml Puro but very few were able to grow in 2.0 μg/ml Puro. […] RT-PCR and DMR sequencing confirmed that these iPS clones growing in 2.0 μg/mL Puro were more similar to regular ES cells than those clones selected by 1.0 or 1.5 μg/mL Puro in terms of pluripotent gene expression and DNA methylation at promoters of these genes (data not shown). […] We thus used 2.0 μg/mL or higher concentration of Puro in combination of flow cytometry to quantitatively evaluate iPS cell quality in the subsequent experiments.

[3] = tested on: Oct4-IRES-Puro-Egfp MEFs; experiment: Reprogramming of Oct4 reporter MEFs to iPSCs by PB transposition of Yamanaka factors (colony number); format: cell-based, mouse
Description: To investigate the role of RA signalling in reprogramming, we cloned cDNAs of Oct4, Sox2, Klf4, cMyc, Rara and Rarg into a PB-MSCV vector where expression of the cDNAs was controlled by the MSCV LTR (FIG. 6A). Although exogenous c-Myc is not essential for reprogramming, omission of it reduces reprogramming efficiency and delays the process (23, 30). The individual PB-MSCV-cDNA vectors were co-transfected with a PB transposase plasmid into MEFs (FIG. 1A). PB transposition facilitates efficient integration of the PB transposon into the genome, thus ensuring stable expression of the cDNAs (31).
as §1
MEFs were prepared from 12.5 d.p.c. Oct4-IRES-Puro-Egfp embryos. To reduce embryo-to-embryo difference, MEFs from several embryos with the same genotype were mixed together for expansion in M10 media. MEFs were passaged once before they were counted, aliquoted and frozen down. Before electroporation, 1×10^6 MEFs were plated onto one gelatinized 15-cm tissue culture plate. When MEFs were 70-80% confluent, they were typsinized and collected for electroporation. M10: knockout DMEM, 10% foetal bovine serum (FBS, Hyclone), 1×GPS, 1× non-essential amino acids (NEAA, Invitrogen).
MEFs transfection was performed using an Amaxa machine (Lonza) according to the manufacturer's protocol (program A-023). After electroporation, MEFs were seeded in M15 plus LIF on STO feeders. For Tet-On experiments, M15 containing Doxycycline (1.0 μg/ml) was added 24 hours after transfection and was changed every other day. iPSC colonies were usually picked at day 7 to day 10 to 96 well plates and cells were expanded according to standard mouse ES cell culture conditions.
Mouse and human iPSC colonies were visualized by alkaline phosphatase staining using the Leukocyte Alkaline Phosphatase kit (Sigma).
FIG. 1. RA signalling in reprogramming. A. Schematic of the reprogramming strategy by piggyBac (PB) transposition. Oct4 reporter MEFs were transfected with the PB-MSCV-cDNA transposon and transposase plasmids, and were plated directly onto STO feeders. ES-like colonies usually appeared in three weeks. M10 and M15 are media for MEFs and ES cells, respectively. B-C. Expressing Rara or Rarg, together with the four Yamanaka factors, drastically promoted reprogramming while inhibiting RA signalling by expressing Rara-DN blocked reprogramming. iPSC colonies were visualized by alkaline phosphatase staining. The reprogramming control was PB-PGK-Neo plus Yamanaka factors. **: P<0.005; ***: P<0.0005. FL: full-length cDNA; DN: dominant-negative form. D. Temporal requirement of RA signalling in reprogramming. Agonist of Rarg (CD437) was added at various stages of reprogramming. […]

[4] = tested on: Dox-independent human iPSCs; experiment: Signalling dependency of human iPSCs (growth, qRT-PCR); format: cell-based; details: KSR-2i-LIF media
Method: In contrast to dependence on Lif/Jak/Stat pathway for pluripotency maintenance in mouse ES cells, conventional human ES cells derived from embryos are cultured in media containing FGF2 (basic FGF), and LIF alone is insufficient to maintain pluripotency (44, 45). […] Conventional human ES cells are resistant to JAK inhibitor (JAKi) but are differentiated in the presence of BMP4. […] Finally, compared to human ES cells, our human iPSCs expressed lower levels of lineage specific genes such as PAX6, GATA6, and SOX17 in KSR-2i-LIF media (FIG. 5H).
Human iPSCs reprogrammed by PB-CAG vectors were cultured in M15 media, with […] human recombinant LIF. Human iPSCs reprogrammed by PB-TRE vectors were maintained in DMEM/F12 with 1×GPS (Invitrogen), 20% Knockout Serum Replacement (Invitrogen), 1×NEAA, 0.1 mM β-mercaptoethanol (β-ME, Sigma) and two inhibitors, CHIR99021 (5 μM) and PD0325901 (1 μM).
RNA was isolated using the RNeasy Mini Kit (Qiagen). The samples were subsequently quantified and treated with gDNA WipeOut. First-strand cDNA was prepared using the QuantiTect Reverse Transcription Kit (Qiagen). For each RT-PCR reaction, we used 50-100 ng of cDNA and primers listed in Supplementary Table 5. Standard PCR conditions were: 94° C. for 30 s, 60° C. for 30 s, 68° C. for 30 s; X 30 cycles. For real-time PCR, we used Taqman Gene Expression Assays. Taqman probes were either purchased from Applied Biosciences (Supplementary Table 6). All quantitative PCR was performed in a […] Fast Real-Time PCR System (Applied Biosciences). Mouse gene expression was determined relative to mouse Gadph using the ΔCt method. Human gene expression was determined relative to human GADPH gene using the ΔCt method.
FIG. 5. Production and characterization of Dox-independent unique human iPSCs. A. Conservation of RAREoct sequence in several mammalian species. B. Reprogramming HDFn cells using the Tet-On six-factor platform. PB-TRE-cDNA transposon, PB-CAG-rtTA and transposase plasmids were transfected into HDFs which were plated onto STO feeders. Dox (2.0 μg/ml) was added 24 hours post transfection. Dox induction usually lasted for 15-20 days. Colonies were picked for expansion at up to 30 days after transfection. Alternatively, immediately once Dox was removed, colonies were trypsinized and re-plated to a new feeder plate for secondary colony formation. C. Typical human iPSC colony morphology and AP staining. Scale bars: 10.0 μm. D. qRT-PCR analysis of pluripotency genes in parental HDFn, human iPSCs and H1 hESC cells. HiPS15-5 and -10 were two Dox-independent iPSC lines generated from one transfection. […] H. Signalling dependency of human iPSCs measured by gene expression (qRT-PCR). […] Quantitative analysis of gene expression was performed relative to GADPH. […]

`CCCCCCCOc1cc2c(cc1/C(C)=C/c1ccc(C(=O)O)cc1)C(C)(C)CCS2(=O)=O` [Ro-41-5253] was tested, and the “ES cell differentiation induced by RA” value [1] was “block ES cell differentiation”.

`COCCOCOc1cc2ccc(-c3ccc(C(=O)O)cc3)cc2cc1C12CC3CC(CC(C3)C1)C2` [CD2665] was tested, and the “quality of partially reprogrammed clones” value ([2]; 10 μM, two independent partially reprogrammed clones) was “significantly improved”, the “effect on quality of partially reprogrammed clones” value ([2]; 10 μM, used together with 5-Aza) was “more obvious” and the “GFP status of partially reprogrammed clones” value ([2]; after treatment for 4 days, with or without 5-Aza) was “largely GFP negative”. The “ES cell differentiation induced by RA” value [1] was “block ES cell differentiation”.

For `O=C(O)c1ccc2cc(-c3ccc(O)c(C45CC6CC(CC(C6)C4)C5)c3)ccc2c1` [CD437], the “iPS cell colony number” value ([3]; 100 nM for up to eight day, with four Yamanaka factors) was “greatly increased”, the “reprogramming of MEFs to iPSCs” value ([3]; added to culture media at recommended concentration for 4 or 8 days, with four Yamanaka factors) was “drastically increased” and the iPS colony number ([3]; treatment beyond 8 days (day 1-12)) was “substantially reduced”. The reprogramming efficiency ([3]; treatment beyond 8 days after transfection) was “reduced reprogramming efficiency”, the “GFP expression from the Oct4 locus in colonies (iPSC quality)” value ([2]; CD437 day 1-4) was “expressed GFP; also recorded: Improvement of iPSC quality” and the “survival of Puro selection” value ([2]; CD437 day 1-4, 2.0 μg/ml Puro) was “survived 2.0 μg/ml Puro selection”. For the same molecule, the “quality of iPS cells, measured by FACS” value [2] was “significantly improved”.

BMP4: BMP4 added to human iPSC culture was tested, and the “growth and pluripotency gene expression of human iPSCs in the presence of the agent” value (shortened to “growth and pluripotency gene expression”) [4] was “proliferated well”.

In the case of `Cc1c[nH]c(/C=C2\C(=O)Nc3ccccc32)c1CCC(=O)O` [SU54021], the “growth and pluripotency gene expression” value [4] is reported as “grew well and kept pluripotency gene expression” and the “growth and pluripotency gene expression” value ([4]; listed as FGFRi) is reported as “Robust expression of pluripotency genes”.

With `CC(C)(C)c1nc2c3cc[nH]c(=O)c3c3cc(F)ccc3c2[nH]1` [JAK inhibitor] the “growth and pluripotency gene expression” value [4] was “lost expression of OCT4 and NANOG and were rapidly differentiated”.

`CC1(C)CCC(C)(C)c2cc(C(=O)Nc3ccc(C(=O)O)cc3)ccc21` [Am580] was tested, and the reprogramming efficiency ([3]; administrated for 8 days, with four Yamanaka factors) was “improved reprogramming efficiency” and the “quality of iPS cells, measured by FACS” value [2] was “little effect”.
